Assay results published in patent publication US20220306640A1, “HYDANTOIN DERIVATIVE” (ONO PHARMACEUTICAL CO., LTD., priority 2019, published 2022).

Key:
DDR1 = target: T1, DDR1 (Homo sapiens, UniProt Q08345); assay: Measurement of DDR1 inhibitory activity (LanthaScreen system, in vitro test); assay type: binding; conditions: GST-DDR1, Kinase tracer 178
T1 construct: purchased Invitrogen
Description: Biological Experiment Example 1: Measurement of an DDR1 Inhibitory Activity (In Vitro Test)
An DDR1 enzyme inhibitory activity was measured by using LanthaScreen (registered trademark) system (Invitrogen) based on the attached instruction. The reagents used are shown below.
Assay buffer: 5× Kinase buffer A (Invitrogen) was diluted 5-fold with ddH2O.
1× Kinase Buffer A: 50 mmol/L HEPES pH 7.5, 10 mmol/L MgCl2, 1 mmol/L EGTA, 0.01% Brij-35.
2×DDR1 Solution: a solution containing […] GST-DDR1 (Invitrogen) was prepared by using Assay buffer.
2× Tracer/antibody solution: a solution containing 20 nmol/L Kinase tracer 178 (Invitorgen) and […] Eu-Anti-GST Antibody (Invitorogen) was prepared by using Assay buffer. Test compound solution: a solution containing a test compound of 2-fold concentration with respect to the final concentration was prepared by 50-fold diluting a DMSO solution of test compound of each concentration with the Assay buffer.
• 1 Add 5 μL 2×DDR1 Solution to proxiplate (PerkinElmer) • 2 Add 5 μL test compound solution to proxiplate • 3 Incubate for 15 min at RT • 4 Add 5 μL 2× Tracer/Antibody solution to all well Incubate 1 h at RT • 6 Read LANCE Eu on Envision (PerkinElmer) (Ex: 320 nm/Em 665 nm & 615 nm)
In the low control group, 5 μL Assay buffer was added instead of 5 μL 2×DDR1 Solution and the final 1% DMSO solution was added instead of test compound solution.
In the high control group, the final 1% DMSO solution was added instead of test compound solution.
(§1) The inhibition rate (%) in the test compound group was calculated based on the following mathematical formula.
% inhibition=100−100*(assay value of test compound−A)/(B−A) [Math. 1]
A: average value of low control group B: average value of high control group
Values of 50% inhibition rate (IC50 values) of the test compound were calculated from the inhibition curve based on the inhibition rate of the test compounds in each concentration.

[1] = target: T2, DDR1 phosphorylation in T-47D (ATCC, HTB-133) cells (Homo sapiens, UniProt Q08345); assay: Measurement of DDR1 phosphorylation suppression rate by using T-47D cells (p-DDR1 ELISA); assay type: cell-based; conditions: collagen Type I 10 μg/ml, p-DDR1 (panTyr) ELISA
T2 construct: host or cells: T-47D
Description: Biological Example 2: Measurement of DDR1 Phosphorylation Suppression Rate by Using T-47D (ATCC, HTB-133) cells
T-47D cells should be in culture for at least 7 days before using in the assay.
Cell culture medium: RPMI 1640 (HyClone) containing 10% Heat-FBS (HyClone) was prepared.
Assay medium: RPMI 1640 containing 0.1% BSA (solarbio) was prepared.
Collagen Type I (rat tail) solution: Assay medium containing 200 μg/mL Collagen I, rat tail (Gibco) was prepared.
Cell lysis buffer: a solution containing IX cell lysis buffer (CST) and 1× protease and phosphatase inhibitor cocktail (Thermofisher) was prepared by using ddH2O.
• 1. Collect cells into tubes and centrifuge at 1200 rpm for 5 min, at room temperature. Re-suspend the cells in cell culture medium pre-warmed to room temperature. • 2. Count cells and suspend at a density of 2×10^5/ml of cell culture medium. Plate the cells at 100 μL per well (Corning 3599 96-well plate, 2×10^4 cells per well final), mixing the cells well between each draw of the pipettor. • 3. Put lid on cell plate and place into the incubator at 37° C., 5% CO2 • 4. Culture cell overnight
• 1. Remove the plate from the incubator • 2. Cell medium is replaced with the 90 μL Assay medium.
• 1. Compound plates are pre-titrated using DMSO (10-fold dilution for 6 points) • 2. Dilute test compound using assay medium; Transfer 1 μL compound to other 96 well plate and then add 49 μL assay medium to each well (50 fold dilution). • 3. Add 5 μL the diluted test compound solution to the appropriate wells by pipettor. Compound final concentration is start from […] and DMSO final concentration is 0.1 • 4. Tap the plates gently to mix in compound. Reseal the plate with a lid and place in the incubator again, for 24 h.
• 1. Diluted collagen Type I in assay medium to the 200 μg/ml concentration • 2. Using the pipettor adds 5 μL of 200 μg/mL collagen Type I solution to the cell plate (compound well and High control well, collagen final conc. is 10 μg/ml). Add assay medium buffer to the control wells (low control well) • 3. Reseal the plate with a lid and place in the incubator. Incubate 24 h for collagen type I
• 1. After incubation, add 100 µL per well Cell lysis buffer. • 2. Incubate 30 min on ice, then freezing to −80° C. to get the fully cell lysates. • 3. Transfer cell lysates to new plate • 4. Centrifuge for 30 min (×4000 rpm) at 4° C. Then transfer the supernatant to a new plate.
p-DDR1 (panTyr) ELISA kit (CST) was used in the study. The measurement was carried out according to the attached instruction.
as §1
% inhibition=100−100*(assay value of test compound−A)/(B−A) [Math. 2]
A: average value of low control group B: average value of high control group Values of 50% inhibition rate (IC50 values) of the test compound were calculated from the inhibition curve based on the inhibition rate of the test compounds in each concentration.

T2 sequence (Q08345 19-913): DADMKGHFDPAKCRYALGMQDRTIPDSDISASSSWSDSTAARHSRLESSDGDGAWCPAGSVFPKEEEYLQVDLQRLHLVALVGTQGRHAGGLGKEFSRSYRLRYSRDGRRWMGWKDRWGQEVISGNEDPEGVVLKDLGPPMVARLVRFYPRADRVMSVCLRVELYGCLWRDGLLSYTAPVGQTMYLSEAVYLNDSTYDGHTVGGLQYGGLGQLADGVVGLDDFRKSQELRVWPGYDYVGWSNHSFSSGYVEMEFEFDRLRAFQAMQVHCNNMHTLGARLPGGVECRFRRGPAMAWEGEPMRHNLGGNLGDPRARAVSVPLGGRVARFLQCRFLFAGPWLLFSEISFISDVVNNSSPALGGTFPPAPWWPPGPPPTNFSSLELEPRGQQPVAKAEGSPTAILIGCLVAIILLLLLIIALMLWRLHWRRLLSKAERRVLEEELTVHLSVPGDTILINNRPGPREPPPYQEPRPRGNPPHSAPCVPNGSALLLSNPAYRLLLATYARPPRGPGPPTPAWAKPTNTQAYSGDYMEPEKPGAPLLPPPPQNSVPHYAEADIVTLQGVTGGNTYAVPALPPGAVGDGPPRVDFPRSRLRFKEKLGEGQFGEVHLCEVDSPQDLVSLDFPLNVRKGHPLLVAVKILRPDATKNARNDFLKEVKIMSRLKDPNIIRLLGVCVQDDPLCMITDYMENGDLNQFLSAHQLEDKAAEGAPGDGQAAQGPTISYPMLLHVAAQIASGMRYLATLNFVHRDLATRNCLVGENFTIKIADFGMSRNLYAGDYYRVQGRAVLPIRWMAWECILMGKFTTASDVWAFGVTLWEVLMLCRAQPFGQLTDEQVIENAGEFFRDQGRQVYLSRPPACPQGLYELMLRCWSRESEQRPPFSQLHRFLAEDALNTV
T1 sequence (Q08345 19-913): as above

IC50 (DDR1) [nM] | IC50 [1] [nM] | SMILES
3 | 2 | C=Cc1cc(N2C(=O)CN(c3cncc(C(F)(F)F)c3)C2=O)ccc1Nc1ncnc2cc(OC)cc(F)c12 [Example 7(6), 3-{4-[(5-fluoro-7-methoxy-4-quinazolinyl)amino]-3-vinylphenyl}-1-[5-(trifluoromethyl)-3-pyridinyl]-2,4-imidazolidinedione]
200 | 50 | COc1cc2nccc(Oc3ccc(N4C(=O)CN(c5cncc(C(F)(F)F)c5)C4=O)cc3C3CN(C(=O)OC(C)(C)C)C3)c2cc1OC [Example 2(2), 2-methyl-2-propanyl 3-(2-[(6,7-dimethoxy-4-quinolinyl)oxy]-5-{2,5-dioxo-3-[5-(trifluoromethyl)-3-pyridinyl]-1-imidazolidinyl}phenyl)-1-azetidinecarboxylate]
10 | 6 | CC(C)c1cc(N2C(=O)CN(c3cc(C(F)(F)F)cn(C)c3=O)C2=O)ccc1Oc1ccnc2cc(OCCCS(C)(=O)=O)ccc12 [Example 2(6), 3-[3-isopropyl-4-({7-[3-(methylsulfonyl)propoxy]-4-quinolinyl}oxy)phenyl]-1-[1-methyl-2-oxo-5-(trifluoromethyl)-1,2-dihydro-3-pyridinyl]-2,4-imidazolidinedione]
3 | 3 | O=C1CN(c2cncc(C3(C(F)(F)F)CCO3)c2)C(=O)N1c1ccc(Oc2cnc3[nH]ncc3c2)cc1 (stereo not shown) [Example 13, 3-[4-(1H-pyrazolo[3,4-b]pyridin-5-yloxy)phenyl]-1-{5-[2-(trifluoromethyl)-2-oxetanyl]-3-pyridinyl}-2,4-imidazolidinedione]
3 | 1 | CCc1cc(N2CCN(c3cccc(C(F)(F)F)c3)C2=O)ccc1Oc1ccnc(N)n1 [Example 4(1), 1-{4-[(2-amino-4-pyrimidinyl)oxy]-3-ethylphenyl}-3-[3-(trifluoromethyl)phenyl]-2-imidazolidinone]
1 | 1 | Cc1cc(Oc2ccnc(N)n2)ccc1N1C(=O)CN(c2cc(F)cc(C(F)(F)F)c2)C1=O [Example 3(111), 3-{4-[(2-amino-4-pyrimidinyl)oxy]-2-methylphenyl}-1-[3-fluoro-5-(trifluoromethyl)phenyl]-2,4-imidazolidinedione]
1 | 1 | O=C1CN(c2cncc(C(F)(F)F)c2)C(=O)N1C1CC2(CC(Oc3ncnc4[nH]ccc34)C2)C1 (stereo not shown) [Example 3(66), 3-[6-(7H-pyrrolo[2,3-d]pyrimidin-4-yloxy)spiro[3.3]hept-2-yl]-1-[5-(trifluoromethyl)-3-pyridinyl]-2,4-imidazolidinedione]
3 | 3 | CC(C)c1cc(N2C(=O)CN(c3cncc(C(F)(F)F)c3)C2=O)ccc1Oc1ccnc2[nH]c(=O)[nH]c12 [Example 2(149), 3-{3-isopropyl-4-[(2-oxo-2,3-dihydro-1H-imidazo[4,5-b]pyridin-7-yl)oxy]phenyl}-1-[5-(trifluoromethyl)-3-pyridinyl]-2,4-imidazolidinedione]
5 | 9 | O=C1CN(c2cncc(C(F)(F)F)c2)C(=O)N1[C@H]1CC[C@H](Oc2ncnc3[nH]ccc23)CC1 (stereo in doubt) [Example 3(17), 3-[trans-4-(7H-pyrrolo[2,3-d]pyrimidin-4-yloxy)cyclohexyl]-1-[5-(trifluoromethyl)-3-pyridinyl]-2,4-imidazolidinedione]
5 | 7 | Nc1nccc(Oc2ccc(N3C(=O)CN(c4cncc(C(F)(F)F)c4)C3=O)c(-c3ccccc3)c2)n1 [Example 3(122), 3-{5-[(2-amino-4-pyrimidinyl)oxy]-2-biphenylyl}-1-[5-(trifluoromethyl)-3-pyridinyl]-2,4-imidazolidinedione]
7 | 1 | O=C1CN(c2cncc(C(F)(F)F)c2)C(=O)N1C1CC2CC1CC2Oc1ncnc2[nH]ccc12 (stereo not shown) [Example 3(63), 3-[5-(7H-pyrrolo[2,3-d]pyrimidin-4-yloxy)bicyclo[2.2.1]hept-2-yl]-1-[5-(trifluoromethyl)-3-pyridinyl]-2,4-imidazolidinedione]
